Experimental data published in ChEMBL document CHEMBL1201862, “PubChem BioAssay data set” (2004).
Activity calls are given as the source filed them. Rule as the data show it: actives have a measured IC50 and inactives only a lower limit.

Biological target: Envelope glycoprotein gp160 (Human immunodeficiency virus 1, UniProt Q6QLK5)
Assay: cell-free HIV fusion peptide-binding blockers – biochemical, uHTS, fluorescence dequenching, […] (AID 1986)

Chain of Envelope glycoprotein gp160 (Q6QLK5 whole entry, the tested form may be a part): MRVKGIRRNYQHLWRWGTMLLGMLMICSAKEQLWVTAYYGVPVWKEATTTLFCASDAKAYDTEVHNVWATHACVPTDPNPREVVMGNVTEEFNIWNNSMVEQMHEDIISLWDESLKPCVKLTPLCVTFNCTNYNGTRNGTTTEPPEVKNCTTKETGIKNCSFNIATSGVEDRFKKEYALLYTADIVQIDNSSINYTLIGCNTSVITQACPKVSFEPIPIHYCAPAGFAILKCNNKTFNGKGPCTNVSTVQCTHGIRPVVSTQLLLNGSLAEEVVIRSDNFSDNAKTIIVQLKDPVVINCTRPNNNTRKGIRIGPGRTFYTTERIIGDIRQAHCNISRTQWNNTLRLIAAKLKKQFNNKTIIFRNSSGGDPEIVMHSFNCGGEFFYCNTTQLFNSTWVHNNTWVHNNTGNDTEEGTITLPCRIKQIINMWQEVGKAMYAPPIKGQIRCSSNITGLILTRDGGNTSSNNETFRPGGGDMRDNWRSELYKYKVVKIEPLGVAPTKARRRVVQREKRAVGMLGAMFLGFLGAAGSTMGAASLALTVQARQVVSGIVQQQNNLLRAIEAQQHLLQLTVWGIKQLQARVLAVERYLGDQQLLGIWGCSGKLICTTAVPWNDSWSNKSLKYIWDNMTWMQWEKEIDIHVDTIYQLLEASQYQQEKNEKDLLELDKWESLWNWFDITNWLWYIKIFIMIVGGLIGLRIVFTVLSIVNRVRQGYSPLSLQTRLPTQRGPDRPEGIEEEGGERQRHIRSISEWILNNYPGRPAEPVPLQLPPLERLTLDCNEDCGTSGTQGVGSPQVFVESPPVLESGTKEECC

CCCOc1ccc(C(=O)NNC(=S)NC(=O)c2cc(-c3ccccc3)nc3ccccc23)cc1
IC50: 30.9 µM (active)

Cc1cccc(C)c1-n1cccc1/C=C1\SC(=S)N(c2cccc(C(=O)O)c2)C1=O
IC50: 22.4 µM (active)

CCC(C)(C)C1CCc2c(sc(NC(=O)c3ccccc3C(=O)O)c2C#N)C1 (stereo not drawn)
IC50: 12.9 µM (active)
